molecular target: T1, human Granzyme B (hGzmB) (Homo sapiens, UniProt P10144); test: Human Granzyme B enzymatic inhibition assay (fluorogenic, kinetic); type: biochemical; settings: activity codes, Table 7; read-out: IC50 Activity Range
T1 construct: purchased Froelich Lab, Northshore University Health Systems Research Institute, Evanston, Ill., USA
Description: A specific 2× assay buffer was prepared for the enzyme to be tested (see Table 2 for final 1× assay buffer compositions). If the assay buffer included DTT, it was added immediately prior to running the assay. A 2× enzyme mix was prepared (see Table 3 for enzyme assay conditions) at 80 uL per well. Compounds were screened at one or two appropriate concentrations (to determine the percent inhibition at those concentrations) and/or a full dose response curve (typically 8 points, to identify the IC50) in duplicate, triplicate, or higher replicates as needed. An appropriate control was also assessed in full dose response, in duplicate for each assay/plate. Background control wells consisted of 1× assay buffer, DMSO (5% v/v) and substrate. Positive control wells consisted of enzyme, DMSO (5% v/v) and substrate. Test compounds and control compounds were diluted in DMSO to […] the final desired concentration. For example, a test compound may be tested in dose response, in serial, tripling dilution condition starting at 20 uM and ending at 9.1 nM (or any appropriate concentration range and dilution scheme). Control compounds were prepared similarly. Diluted compounds were prepared in a dilution plate and transferred to the reaction plate (96-well medium binding plate (Greiner Bio-One FLUOTRAC™)) to allow for the desired final concentrations when added to the enzyme with AB. After mixing, the reaction plate was placed on a shaker (at 300 RPM) for 5 min, followed by incubation (covered) on the bench, for 20 min. Plates were warmed to reaction temperature (see Table 3) for a total incubation time of 30 min. Plates so prepared were ready for addition of substrate and the subsequent reaction.
(§1) An appropriate substrate for each assay was prepared in advance at 2× the final desired concentration (see Table 2) in DMSO. The appropriate substrate mix was added to each appropriate well on the reaction plate, and the plate was read immediately in the TECAN plate reader (TECAN INFINITE® M1000 Pro), set to the correct wavelength as needed for each assay (see Table 3) using 25 cycles, kinetic interval of 1 min, number of reads per well of 20 with shaking set to 1 s, double orbital, 2 mm amplitude. For fluorescent assays the gain was set to optimal (50%).
An in vitro fluorogenic detection assay for assessing the IC50 and/or percent inhibition at a given concentration of inhibitors against human Granzyme B (hGzmB) enzyme was performed as described in Example D1. When appropriate, percent inhibition data was collected and fitted to generate IC50 data using GraphPad Prism 5 (GraphPad Software, La Jolla Calif. USA, www.graphpad.com) and its non-linear regression analysis tools or other equivalent tools. […]
as §1, with “5)” for “2)”, “assay buffer. 30 uL of the” for “DMSO. The”, “6)” for “3)”, “15” for “25”, “(100% with gain regulation) for all assays except human GzmB which was set to 85 (with the z set at 23000 um).” for “(50%).”
An in vitro fluorogenic detection assay for assessing the IC50 and/or percent inhibition at a given concentration of inhibitors against human Granzyme B (hGzmB) enzyme was performed as described in Example D5. When appropriate, percent inhibition data was collected and fitted to generate IC50 data using GraphPad Prism 5 (GraphPad Software, La Jolla Calif. USA, www.graphpad.com) and its non-linear regression analysis tools or other equivalent tools.

T1 sequence (P10144 21-247): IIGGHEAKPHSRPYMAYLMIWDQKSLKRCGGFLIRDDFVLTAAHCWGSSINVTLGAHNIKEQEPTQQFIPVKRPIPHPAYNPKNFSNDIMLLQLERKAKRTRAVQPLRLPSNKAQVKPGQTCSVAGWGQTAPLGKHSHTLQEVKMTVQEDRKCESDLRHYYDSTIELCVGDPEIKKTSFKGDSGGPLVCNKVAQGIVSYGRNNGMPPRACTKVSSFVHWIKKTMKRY

| Structure (SMILES) | IC50 [µM] |
| --- | --- |
| C[C@H](OC(C)(C)C)[C@H](NC(=O)Cc1ccccc1)C(=O)NCC(=O)N1c2ccccc2C[C@H]1C(=O)NCc1nn[nH]n1 [Example C10, (2S)-1-{2-[(2S,3S)-3-(Tert-Butoxy)-2-(2-Phenylacetamido)Butanamido]Acetyl}-N-(2H-1,2,3,4-Tetrazol-5-Ylmethyl)-2,3-Dihydro-1H-Indole-2-Carboxamide] | > 10 |
| CC[C@H](C)[C@H](NC(=O)Cc1ccccc1)C(=O)N[C@@H](CC(=O)O)C(=O)N1c2ccccc2C[C@H]1C(=O)NCc1nn[nH]n1 [Example C14] | 1 to 10 |
| CC[C@H](C)[C@H](NC(=O)Cc1ccccc1)C(=O)N[C@H](CC(=O)O)C(=O)N1c2ccccc2C[C@H]1C(=O)NCc1nn[nH]n1 [Example C15, (3R)-3-[(2S,3S)-3-Methyl-2-(2-Phenylacetamido)Pentanamido]-4-Oxo-4-[(2S)-2-[(2H-1,2,3,4-Tetrazol-5-Ylmethyl)Carbamoyl]-2,3-Dihydro-1H-Indol-1-Yl]Butanoic Acid] | 1 to 10 |
| CC[C@H](C)[C@H](NC(=O)Cc1ccccc1)C(=O)N[C@H](CCC(=O)O)C(=O)N1c2ccccc2C[C@H]1C(=O)NCc1nn[nH]n1 [Example C16, (4R)-4-[(2S,3S)-3-Methyl-2-(2-Phenylacetamido)Pentanamido]-5-Oxo-5-[(2S)-2-[(2H-1,2,3,4-Tetrazol-5-Ylmethyl)Carbamoyl]-2,3-Dihydro-1H-Indol-1-Yl]Pentanoic Acid] | 0.1 to 1 |
| CC[C@H](C)[C@H](NC(=O)Cc1ccccc1)C(=O)N[C@@H](CCCC(=O)O)C(=O)N1c2ccccc2C[C@H]1C(=O)NCc1nn[nH]n1 [Example C17, (5S)-5-[(2S,3S)-3-Methyl-2-(2-Phenylacetamido)Pentanamido]-6-Oxo-6-[(2S)-2-[(2H-1,2,3,4-Tetrazol-5-Ylmethyl)Carbamoyl]-2,3-Dihydro-1H-Indol-1-Yl]Hexanoic Acid] | 1 to 10 |
| CC[C@H](C)[C@H](NC(=O)Cc1ccccc1)C(=O)N[C@@H](CCCCN)C(=O)N1c2ccccc2C[C@H]1C(=O)NCc1nn[nH]n1 [Example C18, (2S)-1-[(2S)-6-Amino-2-[(2S,3S)-3-Methyl-2-(2-Phenylacetamido)Pentanamido]Hexanoyl]-N-(2H-1,2,3,4-Tetrazol-5-Ylmethyl)-2,3-Dihydro-1H-Indole-2-Carboxamide] | > 10 |
| CC[C@H](C)[C@H](NC(=O)Cc1ccccc1)C(=O)NCC(=O)N1c2cc(NC(=O)OC(C)(C)C)ccc2C[C@H]1C(=O)NCc1nn[nH]n1 [Example C19, Tert-Butyl N-[(2S)-1-{2-[(2S,3S)-3-Methyl-2-(2-Phenylacetamido)Pentanamido]Acetyl}-2-[(2H-1,2,3,4-Tetrazol-5-Ylmethyl)Carbamoyl]-2,3-Dihydro-1H-Indol-6-Yl]Carbamate] | 0.1 to 1 |
| CC[C@H](C)[C@H](NC(=O)Cc1ccccc1)C(=O)NCC(=O)N1c2cc(NCc3ccccc3)ccc2C[C@H]1C(=O)NCc1nn[nH]n1 [Example C21, (2S)-6-(Benzylamino)-1-{2-[(2S,3S)-3-Methyl-2-(2-Phenylacetamido)Pentanamido]Acetyl}-N-(2H-1,2,3,4-Tetrazol-5-Ylmethyl)-2,3-Dihydro-1H-Indole-2-Carboxamide] | > 10 |
| CC[C@H](C)[C@H](Nc1ncccn1)C(=O)NCC(=O)N1c2ccccc2C[C@H]1C(=O)NCc1nn[nH]n1 [Example C26, (2S)-1-{2-[(2S,3S)-3-Methyl-2-[(Pyrimidin-2-Yl)Amino]Pentanamido]Acetyl}-N-(2H-1,2,3,4-Tetrazol-5-Ylmethyl)-2,3-Dihydro-1H-Indole-2-Carboxamide] | > 10 |
| CC[C@H](C)[C@H](NC(=O)Cc1ccccc1)C(=O)NCC(=O)N1c2ccc(NC(=O)OC(C)(C)C)cc2C[C@H]1C(=O)NCc1nn[nH]n1 [Example C31, Tert-Butyl N-[(2S)-1-{2-[(2S,3S)-3-Methyl-2-(2-Phenylacetamido)Pentanamido]Acetyl}-2-[(2H-1,2,3,4-Tetrazol-5-Ylmethyl)Carbamoyl]-2,3-Dihydro-1H-Indol-5-Yl]Carbamate] | 0.1 to 1 |
| CC[C@H](C)[C@H](NC(=O)Cc1ccccc1)C(=O)NCC(=O)N1c2ccc(NC(C)(C)C)cc2C[C@H]1C(=O)NCc1nn[nH]n1 [Example C33, (2S)-5-(Tert-Butylamino)-1-{2-[(2S,3S)-3-Methyl-2-(2-Phenylacetamido)Pentanamido]Acetyl}-N-(2H-1,2,3,4-Tetrazol-5-Ylmethyl)-2,3-Dihydro-1H-Indole-2-Carboxamide] | > 10 |
| CC[C@H](C)[C@H](NC(=O)Cc1ccccc1)C(=O)NCC(=O)N1c2ccc([N+](C)(C)C)cc2C[C@H]1C(=O)NCc1nn[nH]n1 [Example C34, (2S)—N,N,N-Trimethyl-1-{2-[(2S,3S)-3-Methyl-2-(2-Phenylacetamido)Pentanamido]Acetyl}-2-[(2H-1,2,3,4-Tetrazol-5-Ylmethyl)Carbamoyl]-2,3-Dihydro-1H-Indol-5-Aminium Iodide] | > 10 |
| CC[C@H](C)[C@H](NC(=O)Cc1ccccc1)C(=O)NCC(=O)N1c2ccc(NCc3ccccc3)cc2C[C@H]1C(=O)NCc1nn[nH]n1 [Example C35] | > 10 |

Continued, values first:

| IC50 [µM] | Structure (SMILES) |
| --- | --- |
| 1 to 10 | O=C(O)CCC(=O)N[C@H](C(=O)NCC(=O)N1c2ccccc2C[C@H]1C(=O)NCc1nn[nH]n1)c1ccsc1 [Example C23, 3-{[(S)-({2-Oxo-2-[(2S)-2-[(2H-1,2,3,4-Tetrazol-5-Ylmethyl)Carbamoyl]-2,3-Dihydro-1H-Indol-1-Yl]Ethyl}Carbamoyl)(Thiophen-3-Yl)Methyl]Carbamoyl}Propanoic Acid] |
| 1 to 10 | O=C(O)CCC(=O)N1CCCC[C@H]1C(=O)NCC(=O)N1c2ccccc2C[C@H]1C(=O)NCc1nn[nH]n1 [Example C25, 4-Oxo-4-[(2S)-2-({2-Oxo-2-[(2S)-2-[(2H-1,2,3,4-Tetrazol-5-Ylmethyl)Carbamoyl]-2,3-Dihydro-1H-Indol-1-Yl]Ethyl}Carbamoyl)Piperidin-1-Yl]Butanoic Acid] |
| > 10 | O=C(O)CCC(=O)N1CCC[C@H]1C(=O)NCC(=O)N1c2ccccc2C[C@H]1C(=O)NCc1nn[nH]n1 [Example C28, 4-Oxo-4-[(2S)-2-({2-Oxo-2-[(2S)-2-[(2H-1,2,3,4-Tetrazol-5-Ylmethyl)Carbamoyl]-2,3-Dihydro-1H-Indol-1-Yl]Ethyl}Carbamoyl)Pyrrolidin-1-Yl]Butanoic Acid] |
| > 10 | O=C(O)CCC(=O)NC1(C(=O)NCC(=O)N2c3ccccc3C[C@H]2C(=O)NCc2nn[nH]n2)CCCC1 [Example C29, 3-{[1-({2-Oxo-2-[(2S)-2-[(2H-1,2,3,4-Tetrazol-5-Ylmethyl)Carbamoyl]-2,3-Dihydro-1H-Indol-1-Yl]Ethyl}Carbamoyl)Cyclopentyl]Carbamoyl}Propanoic Acid] |
| > 10 | CC[C@H](C)[C@H](NC(=O)Cc1ccccc1)C(=O)NCC(=O)N1c2c(cccc2NC(C)=O)C[C@H]1C(=O)NCc1nn[nH]n1 [Example C30, (2S)-7-Acetamido-1-{2-[(2S,3S)-3-Methyl-2-(2-Phenylacetamido)Pentanamido]Acetyl}-N-(2H-1,2,3,4-Tetrazol-5-Ylmethyl)-2,3-Dihydro-1H-Indole-2-Carboxamide] |
| 0.1 to 1 | O=C(O)CCC(=O)N[C@H](C(=O)NCC(=O)N1c2ccccc2C[C@H]1C(=O)NCc1nn[nH]n1)c1ccccc1 [Example C38, 3-{[(S)-({2-Oxo-2-[(2S)-2-[(2H-1,2,3,4-Tetrazol-5-Ylmethyl)Carbamoyl]-2,3-Dihydro-1H-Indol-1-Yl]Ethyl}Carbamoyl)(Phenyl)Methyl]Carbamoyl}Propanoic Acid] |
| < 0.1 | CC[C@H](C)[C@H](NC(=O)Cc1nn[nH]n1)C(=O)NCC(=O)N1c2ccccc2C[C@H]1C(=O)NCc1c[nH]nn1 [Example C39, (2S)-1-{2-[(2S,3S)-3-Methyl-2-[2-(2H-1,2,3,4-Tetrazol-5-Yl)Acetamido]Pentanamido]Acetyl}-N-(1H-1,2,3-Triazol-4-Ylmethyl)-2,3-Dihydro-1H-Indole-2-Carboxamide] |

— patent US10329324B2 (viDA Therapeutics Inc., priority 2013, dated 2019)
